The NIST ThermoML archive (doi:10.1016/j.jct.2017.03.032)

Test: wn = mass fraction of the nth substance listed
Conditions: Gas, Burnett expansion method

F/C=C/C(F)(F)F [trans-1,3,3,3-tetrafluoropropene] + CC(C)C
Conditions	mass density [kg/m3]
325.1 K, 523.6 kPa, w1 = 0.85	21.624
325.1 K, 621.5 kPa, w1 = 0.75	24.3306
325.1 K, 668.2 kPa, w1 = 0.85	28.6964
325.1 K, 786.7 kPa, w1 = 0.75	32.2887
325.1 K, 844.6 kPa, w1 = 0.85	38.0818
325.11 K, 166.4 kPa, w1 = 0.7	5.6568
325.11 K, 167.1 kPa, w1 = 0.75	5.9115
325.11 K, 218.6 kPa, w1 = 0.7	7.5069
325.11 K, 237.8 kPa, w1 = 0.85	9.2525
325.11 K, 286.7 kPa, w1 = 0.7	9.9621
325.11 K, 373.4 kPa, w1 = 0.7	13.2204
325.11 K, 483.2 kPa, w1 = 0.7	17.5443
325.11 K, 617.3 kPa, w1 = 0.7	23.2823
325.13 K, 167.9 kPa, w1 = 0.65	5.518
325.13 K, 220.6 kPa, w1 = 0.65	7.3227
325.13 K, 289.1 kPa, w1 = 0.65	9.7176
325.13 K, 377.5 kPa, w1 = 0.65	12.8959
325.13 K, 484.7 kPa, w1 = 0.65	17.1136
325.13 K, 619.9 kPa, w1 = 0.65	22.7108
325.17 K, 238.4 kPa, w1 = 0.8	8.8968
325.17 K, 312.1 kPa, w1 = 0.8	11.8066
325.17 K, 407 kPa, w1 = 0.8	15.6681
325.17 K, 526.5 kPa, w1 = 0.8	20.7926
325.17 K, 669 kPa, w1 = 0.8	27.593
325.17 K, 846.3 kPa, w1 = 0.8	36.6175
325.18 K, 181.5 kPa, w1 = 0.8	6.704
325.18 K, 192.3 kPa, w1 = 0.9	7.7424
325.18 K, 252.4 kPa, w1 = 0.9	10.2747
325.18 K, 330.4 kPa, w1 = 0.9	13.6351
325.18 K, 430.4 kPa, w1 = 0.9	18.0945
325.18 K, 549.6 kPa, w1 = 0.9	24.0125
325.18 K, 703.2 kPa, w1 = 0.9	31.8661
330.12 K, 156.9 kPa, w1 = 0.75	5.446
330.12 K, 205.5 kPa, w1 = 0.75	7.2271
330.12 K, 271 kPa, w1 = 0.75	9.5908
330.12 K, 354.5 kPa, w1 = 0.75	12.7274
330.12 K, 457.3 kPa, w1 = 0.75	16.8904
330.12 K, 588.2 kPa, w1 = 0.75	22.4145
330.12 K, 750 kPa, w1 = 0.75	29.7454
330.12 K, 945.5 kPa, w1 = 0.75	39.4741
330.12 K, 981.5 kPa, w1 = 0.85	44.7652
330.13 K, 163.7 kPa, w1 = 0.85	6.1759
330.13 K, 215.1 kPa, w1 = 0.85	8.1958
330.13 K, 282.7 kPa, w1 = 0.85	10.876
330.13 K, 369.7 kPa, w1 = 0.85	14.4335
330.13 K, 612.7 kPa, w1 = 0.85	25.4187
330.13 K, 779.3 kPa, w1 = 0.85	33.7323
330.14 K, 476.1 kPa, w1 = 0.85	19.1537
330.2 K, 440.7 kPa, w1 = 0.7	15.4891
330.2 K, 559.7 kPa, w1 = 0.7	20.5552
330.2 K, 717.8 kPa, w1 = 0.7	27.2782
330.21 K, 338.1 kPa, w1 = 0.7	11.6715
330.21 K, 929.7 kPa, w1 = 0.9	43.8273
330.22 K, 153.7 kPa, w1 = 0.9	6.0465
330.22 K, 202.2 kPa, w1 = 0.9	8.024
330.22 K, 258.3 kPa, w1 = 0.7	8.7948
330.22 K, 265.5 kPa, w1 = 0.9	10.6483
330.22 K, 347.5 kPa, w1 = 0.9	14.131
330.22 K, 452.8 kPa, w1 = 0.9	18.7526
330.22 K, 576.5 kPa, w1 = 0.9	24.8861
330.22 K, 735.5 kPa, w1 = 0.9	33.0255
330.23 K, 145.4 kPa, w1 = 0.65	4.6896
330.23 K, 149.5 kPa, w1 = 0.7	4.9937
330.23 K, 192.1 kPa, w1 = 0.65	6.2233
330.23 K, 252.5 kPa, w1 = 0.65	8.2587
330.23 K, 272.1 kPa, w1 = 0.8	10.0277
330.23 K, 354.3 kPa, w1 = 0.8	13.3074
330.23 K, 463.4 kPa, w1 = 0.8	17.6597
330.23 K, 754.4 kPa, w1 = 0.8	31.1003
330.23 K, 951.7 kPa, w1 = 0.8	41.2719
330.24 K, 157.7 kPa, w1 = 0.8	5.6939
330.24 K, 196.7 kPa, w1 = 0.7	6.6269
330.24 K, 207.3 kPa, w1 = 0.8	7.5562
330.24 K, 330.6 kPa, w1 = 0.65	10.9596
330.24 K, 431.5 kPa, w1 = 0.65	14.544
330.24 K, 590.5 kPa, w1 = 0.8	23.435
330.24 K, 702.3 kPa, w1 = 0.65	25.6134
330.25 K, 548.5 kPa, w1 = 0.65	19.3004
